Experimental data taken from patent US20110003776A1, “[…] DERIVATIVES, PHARMACEUTICAL COMPOSITIONS AND THERAPEUTIC TREATMENT THEREOF” (TRUSTEES OF BOSTON UNIVERSITY, priority 2009, published 2011).

What follows are compounds tested on Mycobacterium tuberculosis (assay: microplate Alamar Blue assay (MABA) against Mycobacterium tuberculosis). Settings: MIC and IC50 values only in Scheme 5.
Format: cell-based
Excerpt: The skilled artisan is well aware of the methods for measuring growth of mycobacteria. A common method of detecting growth in mycobacterial cultures involves the use of […]. An exemplary method is the microplate Alamar Blue assay (MABA), described in Falzari, et al., Antimicrob. Agents Chemother. 2005, 49, 1447-1454 (2005), content of which is herein incorporated by reference.
The library compounds of ureas 7, amides 8, and sulfonamides 9 were screened for activity against Mycobacterium tuberculosis using the microplate Alamar Blue assay (MABA), described in Falzari, et al., Antimicrob. Agents Chemother. 2005, 49, 1447-1454 (2005), content of which is herein incorporated by reference. The MIC values were established after initial positive hits were identified (>80% inhibition at 10 μg/mL). Cytotoxicity assays were performed on Vero cells with IC50 values greater than 50 μg/mL under the assay conditions. Activities were subsequently validated in duplicate assays with resynthesized compound.

Compound | activity against Mycobacterium tuberculosis
COc1ccc(-c2nc3c(c4c2C[C@H](c2ccccc2)OC4)CN(S(=O)(=O)c2ccc(C#N)cc2)CC3)c(C)c1 [9{4,4}] | significant activities
COc1ccc(NC(=O)N2CCc3nc(-c4ccc(OC)cc4C)c4c(c3C2)CO[C@@H](c2ccccc2)C4)cc1 [7{4,2}, (R)-6-(4-Methoxy-2-methylphenyl)-N-(4-methoxyphenyl)-8-phenyl-3,4,7,8-tetrahydro-1H-pyrano[4,3-c][1,6]naphthyridine-2(10H)-carboxamide] | significant activities
COc1ccc(-c2nc3c(c4c2C[C@H](c2ccccc2)OC4)CN(C(=O)N[C@H](C)c2ccccc2)CC3)c(C)c1 [7{4,1}] | significant activities
